Where “and” joins values, the source holds several entries; their conditions need not be identical. Identical values can stand only once.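 Test compounds were applied to cells in 96-well plates for 48 hours at 5 doses. Here, GI50 denotes the concentration required for 50% inhibition of growth. TGI is the concentration that stops growth completely.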
Legend:
Experiment in all cases: NCI tumour cell line growth inhibition, 48 h
[1] = system: HOP-62 NSCLC
[2] = system: T-47D breast
[3] = system: MOLT-4 leukemia
[4] = system: A549 NSCLC
[5] = system: ACHN renal
[6] = system: M14 melanoma
[7] = system: SW-620 colon
[8] = system: COLO 205 colon
[9] = system: DU-145 prostate
[10] = system: IGROV1 ovarian

SMILES	TGI [1]	TGI [2]	TGI [3]	TGI [4]	TGI [5]	TGI [6]	TGI [7]	TGI [8]	TGI [9]	TGI [10]	GI50 [1]	GI50 [2]	GI50 [3]	GI50 [4]	GI50 [5]	GI50 [6]	GI50 [7]	GI50 [8]	GI50 [9]	GI50 [10]
COc1ccc(CCN2COc3ccc4ccc(=O)oc4c3C2)cc1OC	> 100 µM	> 100 µM	> 100 µM	> 100 µM	> 100 µM	> 100 µM	69 µM	> 100 µM	> 100 µM	> 100 µM	–	–	–	–	–	–	–	–	–	–
Cc1cc(O)c(O)c(Oc2cc(C)cc(O)c2O)c1	> 100 µM	84.9 µM	> 100 µM	> 100 µM	79.9 µM	49.3 µM	> 100 µM	36.4 µM	> 100 µM	69.6 µM	–	–	–	–	–	–	–	–	–	–
CS(=O)(=O)N(CC(=O)O)Cc1ccccc1	> 100 µM	> 100 µM	> 100 µM	> 100 µM	> 100 µM	> 100 µM	> 100 µM	> 100 µM	> 100 µM	> 100 µM	–	–	–	–	–	–	–	–	–	–
CCCCC/C=C\C/C=C/CCCCCCCCNC(=O)Nc1ccc([N+](=O)[O-])cc1	> 100 µM	> 100 µM	41.4 µM	> 100 µM	> 100 µM	77.5 µM	> 100 µM	28.9 µM	> 100 µM	> 100 µM	40.8 µM	22.7 µM	5.68 µM	38.2 µM	6.8 µM	6.9 µM	5.51 µM	15 µM	40.1 µM	26.4 µM
COc1cccc2cc(-c3nc(C4CCC(C(=O)O)CC4)n4ncnc(N)c34)[nH]c12 (stereo not given)	3.64 µM and 4.83 µM	0.442 µM and 0.356 µM	> 40.8 µM	11.8 µM and > 10 µM	15.5 µM and > 10 µM	3.76 µM and > 7.22 µM	> 100 µM	13.5 µM and > 8.26 µM	24.3 µM and > 10 µM	1.68 µM and 1.97 µM	0.305 µM and 0.338 µM	0.045 µM and 0.0505 µM	0.4 µM and 0.767 µM	1.21 µM and 1.97 µM	0.42 µM and 1.03 µM	0.219 µM and 0.36 µM	1.23 µM and 1.49 µM	1.07 µM and 0.542 µM	1.22 µM and 1.63 µM	0.192 µM and 0.237 µM
O=C(NCc1cccs1)OC1CC2CCC1C2 (stereo not given)	> 100 µM	> 100 µM	> 100 µM	> 100 µM	> 100 µM	> 100 µM	> 100 µM	> 100 µM	> 100 µM	> 100 µM	–	–	–	–	–	–	–	–	–	–
Cc1ccc2nc(CC(=O)c3ccc4ccccc4c3)c(=O)[nH]c2c1	> 100 µM	> 100 µM	> 100 µM	> 100 µM	> 100 µM	> 100 µM	> 100 µM	> 100 µM	> 100 µM	> 100 µM	–	–	–	–	–	–	–	–	–	–
CN1CCN(CCCOc2ccc3nc(Nc4ccc(C(F)(F)F)c(Cl)c4)ccc3c2)CC1	3.18 µM	4.54 µM	3.91 µM	3.48 µM	3.31 µM	3.32 µM	3.33 µM	3.49 µM	3.09 µM	5.3 µM	1.63 µM	1.62 µM	1.63 µM	1.92 µM	1.74 µM	1.71 µM	1.71 µM	1.7 µM	1.58 µM	2.33 µM

From PubChem BioAssay (NCI)
